Converted amounts (≈) assume the structure as drawn. “And” between values parts separate entries of the source, which are not always exact repeats. Equal values may be shown once. Where a name gives a salt, the structure may show the parent alone. Read-outs that look alike come from different tables or passages of the source.
Tests used:
[1] = test system: MCP-1; assay: LPS-stimulated human whole blood (hWB) MCP-1 release assay; format: cell-based; conditions: for IC50: LPS-stimulated human whole blood
Excerpt: The utility of a chemical probe in target validation is directly related to its quality, with important publications detailing requirements to aid researchers.[36]−[38] […] It was accepted that selectivity would be judged initially through a mutant BRD4 TR-FRET assay and would likely shift depending on the protein construct and assay format. […] Previous studies have shown that BET BD1 inhibition is sufficient to inhibit in vitro production of MCP-1 in LPS-stimulated hWB and, as such, served as a relevant measure of cellular target engagement and, concomitantly, proof of cellular permeability.[12],[39] Selectivity over other human bromodomains outside of the BET family, known collectively as non-BET bromodomains, was also required,[40] with a ≥ 100-fold selectivity window targeted. To ensure the molecules remained within developable chemical space, a target property forecast index (PFI) as defined by chromLogDpH7.4 + number of aromatic rings ≤6 was set.[41]
(§1) To understand cellular target engagement, 21 was tested in an LPS-stimulated hWB assay measuring inhibition of the inflammatory mediator MCP-1 secretion.
(§2) All TR-FRET and hWB cytokine assays have been described previously.[54]

[2] = test system: BRD4 BD1; format: binding, human; conditions: TR-FRET
Experimental: (§3) As a strategic decision, every compound synthesized across all of GSK’s bromodomain research projects was tested in both a BRD4 BD1 and a BRD4 BD2 TR-FRET assay as part of tier 1 data generation. […] LipE is a straightforward, yet powerful metric for medicinal chemistry teams to normalize potency relative to lipophilicity, a critical factor both for parameters of the human dose equation and also for promiscuity.[43],[44] To aid interpretation, diagonal lines representing different LipE values are shown, with the most desirable space found toward the top left-hand area of the plot representing molecules with the comparatively highest potency per unit of lipophilicity.
as §2

[3] = CAD aqueous solubility
Experimental: as §1
ChromatographicLogD at pH 7.4, artificial membrane permeability, CLND solubility, and CAD solubility were measured using published protocols.[55]

[4] = test system: BRD4 BD2; assay: BRD4 BD2 TR-FRET assay; format: binding, human
Experimental: as §3, §2

[5] = Chromatographic LogD at pH 7.4
[6] = CLND kinetic aqueous solubility
[7] = read-out: hWB MCP-1 pIC50 (converted)

## Cc1cc(-c2nc3ccccc3n2C[C@@H]2CCCN(C(=O)C3CCC(N)CC3)C2)cn(C)c1=O (stereo in doubt) [Compound 28, 5-(1-(((S)-1-((1r,4R)-4-Aminocyclohexane-1-carbonyl)piperidin-3-yl)methyl)-1H-benzo [d]imidazole-2-yl)-1,3-dimethylpyridin-2(1H)-one]
[1]; [7]
  IC50: 316 nM
[2]
  BRD4 BD1 FRET pIC50: 7.9
  fold selectivity (BRD4 BD1 over BRD4 BD2): 631 fold
[3]
  solubility: ≥ 155 µg/mL
[4]
  BRD4 BD2 FRET pIC50: 5.1
[5]; pH 7.4
  chromatographic logD: 1.4

## CC(=O)N1CCC[C@H](Cn2c(-c3cc(C)c(=O)n(C)c3)nc3ccccc32)C1 [(R)-12, (R)-5-(1-((1-Acetylpiperidin-3-yl)methyl)-1H-benzo[d]imidazole-2-yl)-1,3-dimethylpyridin-2(1H)-one]
[2]
  BRD4 BD1 FRET pIC50: 7.5
  fold selectivity (BRD4 BD1 over BRD4 BD2): 16 fold
[6]; aqueous
  solubility: ≥ 169 µg/mL
[4]
  BRD4 BD2 FRET pIC50: 6.3
[5]; pH 7.4
  chromatographic logD: 2.3

## CC(=O)N1CCC[C@@H](Cn2c(-c3cc(C)c(=O)n(C)c3)nc3ccccc32)C1 [(S)-12, (S)-5-(1-((1-Acetylpiperidin-3-yl)methyl)-1H-benzo[d]imidazole-2-yl)-1,3-dimethylpyridin-2(1H)-one]
[2]
  BRD4 BD1 FRET pIC50: 8.0
  fold selectivity (BRD4 BD1 over BRD4 BD2): 63 fold
[2]; read-out: BRD4 BD1 potency (IC50)
  IC50: 10 nM
[6]; aqueous
  solubility: ≥ 247 µg/mL
[4]
  BRD4 BD2 FRET pIC50: 6.2
[5]; chromLogDpH7.4 + number of aromatic rings
  PFI (property forecast index): 5.2
[5]; pH 7.4
  chromatographic logD: 2.2

## Cc1cc(-c2nc3ccccc3n2CC2CCOCC2)cn(C)c1=O [Compound 13]
[2]
  BRD4 BD1 FRET pIC50: 7.2
  fold selectivity (BRD4 BD1 over BRD4 BD2): 6 fold
[6]; aqueous
  solubility: ≥ 142 µg/mL
[4]
  BRD4 BD2 FRET pIC50: 6.4
[5]; pH 7.4
  chromLogDpH7.4: 2.7

## CC(=O)N1CCC[C@@H](Cn2c(-c3cc(C)c(=O)n(C)c3)nc3cc(Br)ccc32)C1 [Compound 14, (S)-5-(1-((1-Acetylpiperidin-3-yl)methyl)-5-bromo-1H-benzo[d]imidazole-2-yl)-1,3-dimethylpyridin-2(1H)-one]
[2]
  BRD4 BD1 FRET pIC50: 8.0 ± 0.06 (2)
  fold selectivity (BRD4 BD1 over BRD4 BD2): 50 fold
[6]
  solubility: ≥ 250 µg/mL
[4]
  BRD4 BD2 FRET pIC50: 6.3 ± 0.01 (2)
[5]; pH 7.4
  chromatographic logD: 3.3

## Cc1cc(-c2nc3ccccc3n2C[C@@H]2CCCN(C(=O)CCCN)C2)cn(C)c1=O [Compound 21, (S)-5-(1-((1-(4-Aminobutanoyl)piperidin-3-yl)methyl)-1H-benzo[d]imidazole-2-yl)-1,3-dimethylpyridin-2(1H)-one]
[1]; read-out: hWB MCP-1 IC50
  IC50: 500 nM
[1]; [7]
  IC50: 501 nM
[1]; hWB MCP-1 vs BRD4 BD1 TR-FRET
  drop of hWB activity compared to BRD4 BD1 potency: 40 fold
[2]
  BRD4 BD1 FRET pIC50: 7.8
  fold selectivity (BRD4 BD1 over BRD4 BD2): 158 fold
[3]
  solubility: 113 µg/mL (≈ 268 µM)
[4]
  BRD4 BD2 FRET pIC50: 5.6
[5]; pH 7.4
  chromatographic logD: 1.2

## Cc1cc(-c2nc3ccccc3n2C[C@@H]2CCCN(C(=O)C3CNC3)C2)cn(C)c1=O [Compound 22, (S)-5-(1-((1-(Azetidine-3-carbonyl)piperidin-3-yl)methyl)-1H-benzo[d]imidazole-2-yl)-1,3-dimethylpyridin-2(1H)-one]
[1]; [7]
  IC50: 631 nM
[2]
  BRD4 BD1 FRET pIC50: 8.0
  fold selectivity (BRD4 BD1 over BRD4 BD2): 126 fold
[3]
  solubility: ≥ 169 µg/mL
[4]
  BRD4 BD2 FRET pIC50: 5.9
[5]; pH 7.4
  chromatographic logD: 1.2

## Cc1cc(-c2nc3ccccc3n2C[C@@H]2CCCN(C(=O)[C@H]3C[C@H](N)C3)C2)cn(C)c1=O [Compound 23, 5-(1-(((S)-1-((1r,3S)-3-Aminocyclobutane-1-carbonyl)piperidin-3-yl)methyl)-1H-benzo[d]imidazole-2-yl)-1,3-dimethylpyridin-2(1H)-one]
[1]; [7]
  IC50: 200 nM
[2]
  BRD4 BD1 FRET pIC50: 7.9
  fold selectivity (BRD4 BD1 over BRD4 BD2): 316 fold
[3]
  solubility: ≥ 230 µg/mL
[4]
  BRD4 BD2 FRET pIC50: 5.4
[5]; pH 7.4
  chromatographic logD: 1.2

## Cc1cc(-c2nc3ccccc3n2C[C@@H]2CCCN(C(=O)[C@H]3CCNC3)C2)cn(C)c1=O [Compound 24, 1,3-Dimethyl-5-(1-(((S)-1-((S)-pyrrolidine-3-carbonyl)piperidin-3-yl)methyl)-1H-benzo[d]imidazole-2-yl)pyridin-2(1H)-one]
[1]; [7]
  IC50: 1000 nM
[2]
  BRD4 BD1 FRET pIC50: 7.6
  fold selectivity (BRD4 BD1 over BRD4 BD2): 200 fold
[3]
  solubility: ≥ 208 µg/mL
[4]
  BRD4 BD2 FRET pIC50: 5.3
[5]; pH 7.4
  chromatographic logD: 1.3

## Cc1cc(-c2nc3ccccc3n2C[C@@H]2CCCN(C(=O)[C@H]3CC[C@H](N)C3)C2)cn(C)c1=O [Compound 25, 5-(1-(((S)-1-((1S,3S)-3-Aminocyclopentane-1-carbonyl)piperidin-3-yl)methyl)-1H-benzo[d]imidazole-2-yl)-1,3-dimethylpyridin-2(1H)-one]
[1]; [7]
  IC50: 1000 nM
[2]
  BRD4 BD1 FRET pIC50: 7.7
  fold selectivity (BRD4 BD1 over BRD4 BD2): 500 fold and 501 fold
[3]
  solubility: ≥ 157 µg/mL
[4]
  BRD4 BD2 FRET pIC50: 5.0
[5]; pH 7.4
  chromatographic logD: 1.4

## Cc1cc(-c2nc3ccccc3n2C[C@@H]2CCCN(C(=O)c3cnc[nH]3)C2)cn(C)c1=O [Compound 26, (S)-5-(1-((1-(1H-Imidazole-5-carbonyl)piperidin-3-yl)methyl)-1H-benzo[d]imidazole-2-yl)-1,3-dimethylpyridin-2(1H)-one, Formic Acid Salt]
[1]; [7]
  IC50: 2510 nM
[2]
  BRD4 BD1 FRET pIC50: 7.0
  fold selectivity (BRD4 BD1 over BRD4 BD2): 126 fold
[3]
  solubility: ≥ 160 µg/mL
[4]
  BRD4 BD2 FRET pIC50: 4.9
[5]; pH 7.4
  chromatographic logD: 1.9

## Cc1cc(-c2nc3ccccc3n2C[C@@H]2CCCN(C(=O)C3CCNCC3)C2)cn(C)c1=O [Compound 27, (S)-1,3-Dimethyl-5-(1-((1-(piperidine-4-carbonyl)piperidin-3-yl)methyl)-1H-benzo[d]imidazole-2-yl)pyridin-2(1H)-one]
[1]; [7]
  IC50: 1000 nM
[2]
  BRD4 BD1 FRET pIC50: 7.5
  fold selectivity (BRD4 BD1 over BRD4 BD2): 398 fold
[3]
  solubility: ≥ 215 µg/mL
[4]
  BRD4 BD2 FRET pIC50: 4.9
[5]; pH 7.4
  chromatographic logD: 1.3

## Cc1cc(-c2nc3ccccc3n2C[C@@H]2CCCN(C(=O)C3CCCN(C)C3)C2)cn(C)c1=O (stereo partly drawn) [Compound 29, 1,3-Dimethyl-5-(1-(((3S)-1-(1-methylpiperidine-3-carbonyl)piperidin-3-yl)methyl)-1H-benzo[d]imidazole-2-yl)pyridin-2(1H)-one]
[1]; [7]
  IC50: 1580 nM
[2]
  BRD4 BD1 FRET pIC50: 6.8
  fold selectivity (BRD4 BD1 over BRD4 BD2): 50 fold
[3]
  solubility: ≥ 204 µg/mL
[4]
  BRD4 BD2 FRET pIC50: 5.1
[5]; pH 7.4
  chromatographic logD: 1.7

## Cc1cc(-c2nc3ccccc3n2C[C@@H]2CCCN(C(=O)C3CCN(C)CC3)C2)cn(C)c1=O [Compound 30, (S)-1,3-Dimethyl-5-(1-((1-(1-methylpiperidine-4-carbonyl)piperidin-3-yl)methyl)-1H-benzo[d]imidazole-2-yl)pyridin-2(1H)-one]
[1]; [7]
  IC50: 251 nM
[2]
  BRD4 BD1 FRET pIC50: 7.6
  fold selectivity (BRD4 BD1 over BRD4 BD2): 631 fold
[3]
  solubility: ≥ 237 µg/mL
[4]
  BRD4 BD2 FRET pIC50: 4.8
[5]; pH 7.4
  chromatographic logD: 1.5

## Cc1cc(-c2nc3ccccc3n2C[C@@H]2CCCN(C(=O)C3CCOCC3)C2)cn(C)c1=O [Compound 32, (S)-1,3-Dimethyl-5-(1-((1-(tetrahydro-2H-pyran-4-carbonyl)piperidin-3-yl)methyl)-1H-benzo[d]imidazole-2-yl)pyridin-2(1H)-one]
[1]; [7]
  IC50: 794 nM
[2]
  BRD4 BD1 FRET pIC50: 6.7
  fold selectivity (BRD4 BD1 over BRD4 BD2): 100 fold
[3]
  solubility: ≥ 245 µg/mL
[4]
  BRD4 BD2 FRET pIC50: 4.7
[5]; pH 7.4
  chromatographic logD: 2.7

## CC(=O)N1CCC(C(=O)N2CCC[C@@H](Cn3c(-c4cc(C)c(=O)n(C)c4)nc4ccccc43)C2)CC1 [Compound 33, (S)-5-(1-((1-(1-Acetylpiperidine-4-carbonyl)piperidin-3-yl)methyl)-1H-benzo[d]imidazole-2-yl)-1,3-dimethylpyridin-2(1H)-one]
[1]; [7]
  IC50: 2000 nM
[2]
  BRD4 BD1 FRET pIC50: 6.5
  fold selectivity (BRD4 BD1 over BRD4 BD2): 63 fold
[3]
  solubility: ≥ 205 µg/mL
[4]
  BRD4 BD2 FRET pIC50: 4.7
[5]; pH 7.4
  chromatographic logD: 2.2

## Cc1cc(-c2nc3ccccc3n2C[C@@H]2CCCN(C(=O)C3CCN(CC(F)(F)F)CC3)C2)cn(C)c1=O [Compound 36, (S)-1,3-Dimethyl-5-(1-((1-(1-(2,2,2-trifluoroethyl)piperidine-4-carbonyl)piperidin-3-yl)methyl)-1H-benzo[d]imidazole-2-yl)pyridin-2(1H)-one]
[1]; [7]
  IC50: 1260 nM
[2]
  BRD4 BD1 FRET pIC50: 6.3
  fold selectivity (BRD4 BD1 over BRD4 BD2): 40 fold
[3]
  solubility: ≥ 201 µg/mL
[4]
  BRD4 BD2 FRET pIC50: 4.7
[5]; pH 7.4
  chromatographic logD: 4.2
